The values below come from EP0299434B1, “High pH recovery of neutral amino acids” (GENENCOR INTERNATIONAL, INC., priority 1987, dated 1989).

The series in a line: solution pKa (pH at which the solubility versus pH curve changes slope). Format: physicochemical. From the text: The theoretical pKa of a neutral amino acid is a rigorously defined parameter which is independent of temperature and the presence of other components. In accordance with the present invention, the important pKa is the solution pKa which takes into account the actual characteristics of the solution. Thus, the pKa of the neutral amino acid in the actual solution from which it is desired to precipitate the amino acid must be measured. The "solution pKa" is the pH at which the solubility versus pH curve for the solution in question changes slope. For example, if the log of the concentration at saturation is plotted versus pH, two straight line portions of the curve will be noted. The intersection of these straight line portions when extended is considered to be the solution pKa of this solution under the conditions of the test. The solution pKa will depend on the other components in the solution, for example the base that might be present, the temperature and other factors.

As to `N[C@@H](Cc1c[nH]c2ccccc12)C(=O)O` [tryptophan], the pKa – broadly, the negative logarithm of the acid dissociation constant – was around 8.9 (ion exchange eluate concentrated by reverse osmosis, 37°C, ion exchange eluate concentrated by reverse osmosis (Example 4)); around 8.2 (ion exchange eluate evaporated at 60°C, ion exchange eluate evaporated at 60°C (Example 6)); 9 (ion exchange eluate redissolved with ammonium hydroxide, 30°C, ammonia stripping); 8.8 (ion exchange eluate redissolved with ammonium hydroxide, 39°C, ammonia stripping); 8.4 (ion exchange eluate redissolved with ammonium hydroxide, 55°C, ammonia stripping); around 9.2 (saturation curve of Fig. 1).
